Experimental data from patent publication EP1981504B1, “THIADIAZOLE DERIVATIVES FOR THE TREATMENT OF NEURO DEGENERATIVE DISEASES” (NV reMYND, priority 2006, dated 2007).
Converted amounts (≈) assume the structure as drawn.

Experiments:
M17-SYNwt cells = experiment: α-synuclein cytotoxicity assay (LDH leakage from paraquat-treated α-synuclein over-expressing neuroblastoma cells); format: cell-based, human; settings: paraquat 32 mM, 40 hours, LDH release; for EC50: Homo sapiens, Neuroblastoma cell, 10 point curves in duplicate; for %I: percent inhibition of synuclein cytotoxicity at most effective concentration of test compound, relative to untreated paraquat cells
In short: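 M17 neuroblastoma cells over-expressing wild-type α-synuclein were challenged with paraquat, and cytotoxicity was read as LDH release. Protection was expressed as percent reduction of paraquat-induced LDH release relative to untreated paraquat cells and control cells. Actives were retested in 10-point duplicate dose responses.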

[1] = tested on: dopaminergic substantia nigra neurons; experiment: in vivo inhibition of paraquat-triggered loss of substantia nigra neurons (tyrosine hydroxylase immunohistochemistry); settings: mice, paraquat intraperitoneal not higher than 8 mg/kg/day, compound not higher than 20 mg/kg body weight/day, 8 weeks treatment, versus vehicle
Experimental: In order to model neuronal loss in the substantia nigra region of the brain, mice were treated with paraquat (intraperitoneal) at a dose not higher than 8 mg/kg/day for a continuous period of 15-100 days. These mice were also chronically co-treated during that period with: • compound 60 (1-[4-methoxyphenylsulfonyl]-4-[3-(4-methylbenzyl)-1,2,4-thiadiazol-5-yl]-2-methylpiperazine), or • compound 32 (1-[4-methoxyphenylsulfonyl]-4-[3-(4-fluorobenzyl)-1,2,4-thiadiazol-5-yl]piperazine), or • compound 53 (1-[4-methoxyphenylsulfonyl]-4-[3-(3-methoxy-benzyl)-1,2,4-thiadiazol-5-yl]piperazine), each being administered at a dose not higher than 20 mg/kg body weight/day), or by vehicle only (no active compound). Mice treatment by means of vehicle or a compound of the invention started 2 days before administration of paraquat.
At the end of the treatment period, mice were sacrificed and the corresponding brains were used for immunohistochemical analysis. […] Using antibodies raised against tyrosin hydroxylase (anti-tyrosin hydroxylase), tyrosine hydroxylase containing neurons in the brains were detected.
Three groups of mice were treated with either paraquat and compound 53 (group 3; n=6), or paraquat and vehicle of compound 53 (group 2; n=4), or vehicle paraquat and vehicle of compound 53 (group 1; n=3). […] Per mouse, the median %TH-positive areas (of the substantia nigra regions) was determined. […]

| SMILES | EC50 (M17-SYNwt cells) | %I (M17-SYNwt cells) | TH-positive area of the substantia nigra [1] |
| --- | --- | --- | --- |
| COc1ccc(S(=O)(=O)N2CCN(c3nc(Cc4cccc(OC)c4)ns3)CC2)cc1 [Compound 53, 1-[4-methoxyphenylsulfonyl]-4-[3-(3-methoxybenzyl)-1,2,4-thiadiazol-5-yl]piperazine] | 0.00066 µg/mL (≈ 0.00143 µM) | 83% | protects dopaminergic substantia nigra neurons against paraquat-triggered degeneration |
| CCCCc1ccc(C(=O)N2CCN(c3nc(Cc4ccc(C)cc4)ns3)CC2)cc1 [Compound 182, 1-(4-butylbenzoyl)-4-[3-(4-methylbenzyl)-1,2,4-thiadiazol-5-yl]piperazine] | – | 57% | – |
| CCC(=O)Oc1ccc(S(=O)(=O)N2CCN(c3nc(Cc4ccc(F)cc4)ns3)CC2)cc1 [Compound 200, 1-(4-propionyloxy)benzene-sulfonyl-4-[3-(4-fluoro-benzyl)-1,2,4-thiadiazol-5-yl]piperazine] | 0.051 µg/mL (≈ 0.104 µM) | 80% | – |
